# Results from patent publication US12459951B2, “Compounds that interact with RAS superfamily proteins for treatment of cancers, inflammatory diseases, rasopathies, and fibrotic disease” (SHY Therapeutics, LLC, priority 2022, dated 2025).
# Key:
# Erk1/2 phosphorylation = experiment: Erk1/2 Phosphorylation Assay (western blot), Panc-1; format: cell-based, human; conditions: at 10 μM, * = activation
# Method: Protocol for Western Erk1/2 Cell-Based Phosphorylation Assay
# This assay is referred to as the “Erk1/2 Phosphorylation Assay” throughout this application.
# Cell lines: Human tumor-derived pancreatic cancer cell line Panc-1 (expressing KRas G12D mutant) was purchased from American Type Culture Collection and grown in complete DMEM-High Glucose medium, supplemented with penicillin (100 U/mL), streptomycin (100 μg/mL), and 10% heat-inactivated FBS at 37° C. in a humidified incubator with 5% CO2.
# Method 1: Cells were plated at 350000 cells/well density in a 12-well plate, allowed 3 hours to adhere to the plate, then starved in the appropriate medium in the presence of 0.5% FBS overnight. The small molecules to be tested were added to the cells in the final concentration of 10 μM in the presence of 0.3% DMSO for 6 hours incubation at 37° C. For IC50 value determination, serial dilutions of compounds were added to cells under the same conditions. Next, cells were stimulated with 1.5 ng/ml EGF for 15 minutes then cells were lysed with lysis buffer containing 1% Triton X-100, EDTA, and Halt™ Protease & Phosphatase Inhibitor Cocktail (Thermo Scientific). Protein concentration was assessed by BCA protein assay (Thermo Scientific). Phosphorylation level of Erk1/2 was determined by western blot.
# Method 2: Cells were plated at 350000 cells/well density in a 12-well plate in 10% FBS. The next day small molecules to be tested were added to the cells in the final concentration of 10 μM in the presence of 0.3% DMSO for 6 hours incubation at 37° C. For IC50 value determination, serial dilutions of compounds were added to cells under the same conditions. Next, cells were lysed with lysis buffer containing 1% Triton X-100, EDTA, and Halt™ Protease & Phosphatase Inhibitor Cocktail (Thermo Scientific). Protein concentration was assessed by BCA protein assay (Thermo Scientific). Phosphorylation level of Erk1/2 was determined by western blot.
# Western blot protocol: Equal amounts of protein (15-50 μg) were separated by SDS-PAGE and transferred to nitrocellulose membranes (Invitrogen by Thermo Fisher Scientific). The membrane was stained with Ponceau S Stain (Boston BioProducts) to verify uniform protein loading. Membranes were blocked with 10% milk and phosphorylation levels of Erk1/2 were assessed by incubating overnight at 4° C. with anti-phospho-p44/42 (Thr202/Tyr204) antibody (Cell Signaling) followed by HRP-conjugated secondary antibody (Jackson Immunoresearch, West Grove, PA). Bands were incubated in Amersham ECL Prime Western Blotting Detection Reagent (GE Healthcare) and visualized using the ChemiDoc MP imaging system (Bio-Rad).
# IL6 = experiment: IL-6 Quantification Assay (ELISA), LPS-stimulated RAW 264.7; format: cell-based; design: inhibition: dose or concentration left out as unconfirmed; conditions: Mus musculus, RAW264.7; read-out: IL-6: % inh.
# TNF-alpha = TNF-alpha Quantification Assay (ELISA), LPS-stimulated RAW 264.7; format: cell-based; conditions: Mus musculus, RAW264.7; at 10 μM; read-out: TNFα: % inh.
# KRas G12D mutant = experiment: Ras GTP Binding Domain Inhibition Assay (Ras Superfamily Assay); conditions: 20 μM compound; for KRas G12D mutant + SOS: % inh.: with SOS; for KRas G12D mutant: % inh.: without SOS
# Source text: (§1) Biological Example 3: Ras GTP Binding Domain Inhibition Assay
# (§2) The assays described in Example 3 are collectively referred to as the “Ras Superfamily Assay” throughout this application.
# (§3) A Ras Superfamily Activity Assay (as disclosed in International Application No. PCT/US2018/038613, filed Jun. 20, 2018, which is incorporated by reference in its entirety) was used as a specific assay to evaluate compounds against the following for the following Ras Superfamily proteins: KRas wild type, KRas Q61H mutant, KRas G12C mutant, KRas G12D mutant, Rac-1, and Rho-A.
# (§4) • 25 mM Tris-HCl, pH 7.4 • 27 mM KCl • 137 mM NaCl • 1 mM MgCl2 • 1 mM DTT Buffer-II: • 50 mM Tris-HCl, pH 7.0 • 1 mM MgCl2 • 1 mM DTT
# (§5) The small GTPases proteins: KRas wild type. KRas Q61H mutant, KRas G12C mutant, KRas G12D mutants, Rac-1, and Rho-A were expressed as His-tagged proteins. In addition, the Guanosine nucleotide Exchange Factor (GEF) Sos protein (residues 556-1049) was expressed as a His-tagged protein. In cells, the guanine nucleotide exchange factor Sos protein promotes activation of Ras proteins by stimulating an exchange of GDP for GTP. The inclusion of Sos to the Ras GTP binding domain inhibition assay may be considered as an alternative representation of physiological cellular conditions for evaluating the inhibitory activity of some of the tested small molecules.
# (§6) For the assay, all purified small GTPases proteins were diluted in Buffer-I or Buffer-II to a final concentration of 10-30 μg/mL. 200 μL of each diluted protein was added to a nickel-coated 96-well plate and incubated overnight at 4° C. Then the protein solution was discarded and 200 μL of Buffer-I or Buffer-II was added to each well in the presence of 1% DMSO. Compounds to be tested were added to the protein-coated wells at final concentration of 20 μM, and incubated for 3 hours at room temperature with and without 10-30 μg/mL of Sos added to the final hour of the incubation. When performing IC50 measurements a serial dilution of all tested concentrations was added. Then Cy3-GTP or Cy5-GTP was added to each well to a final concentration of 100 nM. The labeled GTP was incubated for 45 minutes at room temperature. Following GTP incubation, wells were washed 3× in Buffer-I or Buffer-II and 200 μL of Buffer-I or Buffer-II was added to each well. Following washes, the amount of bound labeled-GTP was measured using a SpectraMax M3 (Molecular Devices).
# KRas wild type = experiment: as above; conditions: 20 μM compound; for KRas wild type + SOS: % inh.: with SOS; for KRas wild type: % inh.: without SOS
# Source text: as §1, §2, §3, §4, §5, §6
# Rac-1 = target: T1, Rac-1 (Homo sapiens, UniProt P63000); experiment: as above; conditions: read-out: Rac-1: % inh.
# T1 construct: made in house
# Source text: as §1, §2, §3, §4, §5, §6
Structure (SMILES),% inh of Erk1/2 phosphorylation in Panc-1 (Erk1/2 phosphorylation),inhibition (IL6),inhibition at 10 µM (TNF-alpha),KRas G12D mutant + SOS: % inh. (KRas G12D mutant),KRas G12D mutant: % inh. (KRas G12D mutant),KRas wild type + SOS: % inh. (KRas wild type),KRas wild type: % inh. (KRas wild type),inhibition at 20 µM (Rac-1)
"CO[C@H]1CC[C@@H](Nc2nc(-c3ccccn3)nn3cc(-c4ccn(C(C)C)n4)c(C)c23)C1 (racemic) [Compound 9, rac 6-(1-Isopropyl-1H-pyrazol-3-yl)-N-((1R,3S)-3-methoxycyclopentyl)-5-methyl-2-(pyridin-2-yl)pyrrolo[2,1-f][1,2,4]triazin-4-amine]",0 (0% inhibition),1 to 24%,0%,0 (0 = 0% inhibition),0 (0 = 0% inhibition),0 (0 = 0% inhibition),0 (0 = 0% inhibition),0%
"CO[C@@H]1CC[C@@H](Nc2nc(-c3nccn3C)nn3cc(-c4ccn(C)n4)c(C)c23)C1 (racemic) [Compound 132, rac N-((1R,3R)-3-Methoxycyclopentyl)-5-methyl-2-(1-methyl-1H-imidazol-2-yl)-6-(1-methyl-1H-pyrazol-3-yl)pyrrolo[2,1-f][1,2,4]triazin-4-amine]",0 (0% inhibition),0%,0%,A (A = 1-25% inhibition),B (B = 26-49% inhibition),0 (0 = 0% inhibition),B (B = 26-49% inhibition),1 to 25%
"CO[C@H]1CC[C@@H](Nc2nc(-c3nccn3C)nn3cc(-c4ccn(C)n4)c(C)c23)C1 (racemic) [Compound 133, rac N-((1R,3S)-3-Methoxycyclopentyl)-5-methyl-2-(1-methyl-1H-imidazol-2-yl)-6-(1-methyl-1H-pyrazol-3-yl)pyrrolo[2,1-f][1,2,4]triazin-4-amine]",A (1-25% inhibition),0%,1 to 24%,0 (0 = 0% inhibition),B (B = 26-49% inhibition),0 (0 = 0% inhibition),A (A = 1-25% inhibition),1 to 25%
"CO[C@@H]1CC[C@@H](Nc2nc(-c3nccn3C)nn3cc(-c4cccnc4)c(C)c23)C1 (racemic) [Compound 154, rac N-((1R,3R)-3-methoxy-cyclopentyl)-5-methyl-2-(1-methyl-1H-imidazol-2-yl)-6-(pyridin-3-yl)pyrrolo[2,1-f][1,2,4]triazin-4-amine]",C* (46-84% activation),25 to 49%,0%,D (D = 76-100% inhibition),D (D = 76-100% inhibition),B (B = 26-49% inhibition),B (B = 26-49% inhibition),50 to 75%
"CO[C@H]1CC[C@@H](Nc2nc(-c3nccn3C)nn3cc(-c4cccnc4)c(C)c23)C1 (racemic) [Compound 155, rac N-((1R,3S)-3-methoxy-cyclopentyl)-5-methyl-2-(1-methyl-1H-imidazol-2-yl)-6-(pyridin-3-yl)pyrrolo[2,1-f][1,2,4]triazin-4-amine]",A* (1-25% activation),25 to 49%,0%,A (A = 1-25% inhibition),A (A = 1-25% inhibition),A (A = 1-25% inhibition),A (A = 1-25% inhibition),1 to 25%
"COc1cc(-c2cn3nc(-c4nccn4C)nc(N[C@@H]4CC[C@@H](OC)C4)c3c2C)ccn1 (racemic) [Compound 163, rac N-((1R,3R)-3-Methoxycyclopentyl)-6-(2-methoxypyridin-4-yl)-5-methyl-2-(1-methyl-1H-imidazol-2-yl)pyrrolo[2,1-f][1,2,4]triazin-4-amine]",A* (1-25% activation),75 to 100%,1 to 24%,0 (0 = 0% inhibition),0 (0 = 0% inhibition),0 (0 = 0% inhibition),0 (0 = 0% inhibition),0%
"COc1cc(-c2cn3nc(-c4nccn4C)nc(N[C@@H]4CC[C@H](OC)C4)c3c2C)ccn1 (racemic) [Compound 164, rac N-((1R,3S)-3-Methoxycyclopentyl)-6-(2-methoxypyridin-4-yl)-5-methyl-2-(1-methyl-1H-imidazol-2-yl)pyrrolo[2,1-f][1,2,4]triazin-4-amine]",A* (1-25% activation),75 to 100%,1 to 24%,0 (0 = 0% inhibition),A (A = 1-25% inhibition),A (A = 1-25% inhibition),A (A = 1-25% inhibition),1 to 25%
"Cc1c(-c2ccn(C3CC3)n2)cn2nc(-c3nccn3C)nc(Nc3cc(OCCN(C)C)ccn3)c12 [Compound 147, 6-(1-Cyclopropyl-1H-pyrazol-3-yl)-N-(4-(2-(dimethylamino)ethoxy)pyridin-2-yl)-5-methyl-2-(1-methyl-1H-imidazol-2-yl)pyrrolo[2,1-f][1,2,4]triazin-4-amine]",A* (1-25% activation),0%,1 to 24%,,,,,0%
"Cc1c(-c2ccn(C3CC3)n2)cn2nc(-c3nccn3C)nc(Nc3cc(OCCCN(C)C)ccn3)c12 [Compound 148, 6-(1-Cyclopropyl-1H-pyrazol-3-yl)-N-(4-(3-(dimethylamino)propoxy)pyridin-2-yl)-5-methyl-2-(1-methyl-1H-imidazol-2-yl)pyrrolo[2,1-f][1,2,4]triazin-4-amine]",C* (46-84% activation),1 to 24%,1 to 24%,,,,,0%
